target: T1, lipase enzyme (Thermomyces lanuginosus, UniProt O59952, N255R/T253R); assay: Effect of surfactant concentration on lipase activity in the washing liquor; type: biochemical; conditions: not given
T1 construct: purchased Novozymes LIPEX 100 L
Experimental: (§1) The total hydrolysis of rapeseed oil in a wash process was tested with washing liquors that were always comprising the same concentration of a lipase enzyme concentrate. A blank test was performed without any added surfactant. This blank test served as the reference with which could be compared the other results obtained with the same washing liquor samples into which one of a number of different non-ionic surfactants were added.
(§2) For each liquor was tested the appearance of free oleic acid generated from the hydrolysis of a standard amount of rapeseed oil with which the liquor was brought in contact. Monitored by High Performance Liquid Chromatography (HPLC) was the quantitative release of free oleic acid (C18:1 fatty acid) in the washing liquor and/or present on the textile, as explained in the protocols that are described in detail in our copending patent application having the attorney docket reference PAT2549761 EP00 and filed on the same day as this application. Because oleic acid is the main fatty acid in the triglycerides of rapeseed oil, the generation of this acid as free fatty acid it is an excellent quantitative marker for the hydrolysis of rapeseed oil, in this context thus also for the activity of the lipase enzyme.
Extra experiments were performed with 5EO-isoC13 surfactant.

T1 sequence (O59952 23-291 T253R/N255R): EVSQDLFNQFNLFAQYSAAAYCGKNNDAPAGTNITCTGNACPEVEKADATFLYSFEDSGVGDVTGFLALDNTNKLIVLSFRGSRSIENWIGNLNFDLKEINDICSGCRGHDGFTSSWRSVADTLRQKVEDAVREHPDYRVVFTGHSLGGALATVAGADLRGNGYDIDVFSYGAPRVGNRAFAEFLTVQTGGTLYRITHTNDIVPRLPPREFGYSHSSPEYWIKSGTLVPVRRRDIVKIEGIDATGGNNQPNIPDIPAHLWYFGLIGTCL

Row | Substance | surfactant concentration at which the suppressing activity on lipase becomes noticeable [ppm by weight] | surfactant concentration until which the suppressing effect further grows
1 | 5EO-isoC13 | 10 | about 100 ppm by weight

same assay, conditions: from about 100 up to 250 ppm by weight surfactant

Row | Substance | suppressing effect when further increasing the surfactant presence
2 | 5EO-isoC13 | remains about the same

target: T1, lipase enzyme; assay: Total hydrolysis of rapeseed oil in a wash process: effect of surfactants on lipase enzyme activity (free oleic acid by HPLC); type: biochemical; conditions: about 100 ppm by weight surfactant; about 0.2 g/litre lipase concentrate; pH about 9.6; about 50° C.; 2° fH; compared with blank and LES (Sample C)
Experimental: as §1
In the experiments, the lipase concentrate was always present in a concentration of about 0.2 gram of the concentrate per litre of total liquor.
The washing tests were performed at a temperature of about 50° C. The water in the formulations was demineralised water obtained by reverse osmosis (RO).
Different washing liquors were prepared containing about 100 ppm by weight of a selected surfactant, to be compared with a blank liquor containing only the lipase enzyme concentrate and no surfactants.
as §2
A series of tests were performed using washing liquors having a hardness of 2° fH. […] For each surfactant choice 2 duplicate samples were tested, except for Sample J (3 duplicates) and Sample K (only 1 sample tested). […] Also shown for each bar with a surfactant is an error bar showing the difference between the lowest and the highest of the duplicates.

Row | Substance | effect of the surfactant on lipase activity in the washing liquor (in words)
3 | C8-C10 alkyl polyglucoside (APG) with an average degree of polymerisation (DP) of 1.5 | much lower depressing effect
4 | a mixture of linear C13-C15 alcohol that has been ethoxylated to an average degree of about 3 | relatively benign
5 | C9-C11 fatty alcohol alkoxylated with an average ethoxylation degree of about 6 and an average propoxylation degree of about 4 [Sample O] | worse than the LES reference
6 | 5EO-isoC13 | not better than the conventional LES surfactant
7 | C8-C16 APG-DP of 1.5 [Sample J] | much lower depressing effect
8 | C8-C10 APG-DP of 1.7 [Sample K] | much lower depressing effect
9 | 10EO-isoC13 [H] | not better than the conventional LES surfactant
10 | C12-C14 amine oxide [P] | significant boost
11 | 9EO-isoC13 [G] | not better than the conventional LES surfactant
12 | 7EO-isoC13 [F] | not better than the conventional LES surfactant
13 | isotridecyl alcohol ethoxylated to an average degree of ethoxylation of about 3 | not better than the conventional LES surfactant
14 | 7EO-C13-15 [N] | much larger depressing effect
15 | 5EO-C13-C15 [M] | relatively benign

same assay, conditions: about 100 ppm by weight surfactant; about 0.2 g/litre lipase concentrate; pH about 9.6; about 50° C.; hardness 2° fH

Row | Substance | lipase activity relative to the blank liquor (A), set at 100%
16 | Lauryl ether sulphate [Sample C] | about 40%
17 | Linear Alkyl Benzene Sulphonate [Sample B] | 12%
